From patent US20140206028A1, “Stable Electrically Active Neurons from Adult Tissue” (University of Central Florida Research Foundation, Inc., priority 2011, published 2014) come the findings set out here.

Type in all cases: cell-based
The test system of data set [1] is adult rat hippocampal neurons on MEAs. Put plainly: MEA recording of spontaneous activity, adult hippocampal neurons. The following applies: adult cultures. The protocol:
Adult neurons were extracted, dissociated, cultured, and maintained. Briefly, the hippocampi of adult rats (Charles River, age 6-12 months) were dissected and homogenized into small tissue fragments in cold medium (˜4° C.) consisting of Hibernate-A, glutamax, and antibiotic-antimycotic. The tissue was digested for 30 minutes at 37° C. in calcium-free Hibernate-A (HA) containing 6 mg papain/12 ml (HA no calcium). Following digestion, the tissue was washed three times with cold HA media to remove any active enzyme. Next, the tissue was suspended in Dissociation Medium and broken apart into individual cells through mechanical dissociation with fire-polished Pasteur pipettes. The dissociated cells were suspended in Plating medium and then deposited onto DETA (N-1 [3-(trimethoxysilyl) propyl]-diethylenetriamine, United Chemical Technologies Inc., Bristol, Pa., T2910KG) coated glass cover slips. After 30-45 minutes, the cover slips were washed with warm HA by gently swirling the medium to remove tissue debris. Following this washing step, fresh Plating medium was applied and remained for the first 3 div. On 3 div the medium was removed and replaced by Maintenance Medium with 5 μM Roscovitine (Rosc, Sigma, R7772). All research was approved by the Institutional Animal Care and Use Committee at the University of Central Florida and conformed to NIH guidelines. After 4 div, the adult hippocampal neurons on the DETA cover slips were passaged to MEAs. Briefly, neurons were dislodged from the DETA with trypsin (0.05% trypsin/EDTA in HBSS, Gibco, 25200). Trypsin inhibitor (trypsin inhibitor, soybean, Gibco, 17075-029) in Dissociation medium at 0.5 mg per ml deactivated the trypsin. The dislodged neurons were collected and spun at 500×g for 5 minutes. The supernatant of deactivated trypsin in HBSS was discarded, and the neuronal cell pellet was suspended in 1 ml Plating medium. Immunocytochemistry and Laser Scanning Confocal Microscopy
(§1) The MEA chips (Axion Biosystems) provided 64 platinum-black coated gold-electrodes with a diameter of 30 μm, organized in an 8 by 8 array with 200 μm pitch. Clean MEAs were sterilized with 70% alcohol and then incubated with 1 ml poly-L-lysine (100 μg/ml) for 30 minutes. An area just large enough to cover all electrodes was additionally coated with 3 μl laminin (2 μg/ml) over night. Embryonic rat hippocampal neurons were plated directly on MEAs at a density of 500 cells/mm2. Adult rat hippocampal neurons were first cultured on DETA coated cover slips for recovery. […] After 4 days on DETA cover slips, the adult neurons were passaged onto MEAs at a density of 500 cells/mm2. Every 2-3 days, half the medium was replaced with fresh Maintenance medium supplemented with 2 μM Rosc.
(§2) MEAs were incubated with their covers off to allow gas exchange but covered upon removal from the incubator to reduce contamination, media evaporation, and gas exchange while recordings were taken. The head stage of the recording system (Axion Biosystems) was pre-heated to 37° C. before MEAs with adult or embryonic hippocampal cultures were investigated. The activity of neuronal networks was recorded with 25 kHz using the software Axion's Integrated Studio (AxIS). Signal amplitudes 6 times larger than the standard deviation of the base line were detected as action-potential spikes. The spike data was then imported into Matlab 2010b (The MathWorks) for further processing.
Baseline spontaneous activity in adult and embryonic neurons was recorded for 3 minutes on 5 consecutive days per week, starting on 7 div. The synaptic antagonists D-(−)-2-Amino-5-phosphonopentanoic acid (D-APS, 25 μM, Tocris Bioscience, 0106), 6-Cyano-7-nitroquinoxaline-2,3-dione disodium (CNQX, 25 μM, Tocris Bioscience, 1045), and (−)-Bicuculline methobromide (Bicuculline, 50 μM, Tocris Bioscience, 0109) were separately administered to both adult and embryonic neurons on 14 div and at various time points between 30 and 60 div. […]

Data set [2] concerns embryonic rat hippocampal neurons on MEAs. Description: MEA recording of spontaneous activity, embryonic hippocampal neurons. To be noted: embryonic cultures. As for the experimental part:
Embryonic hippocampal neurons were cultured. Pregnant rats, 18 days in gestation, obtained from Charles River were euthanized with carbon dioxide and the fetuses were collected in ice-cold Hibernate E (BrainBits)/B27/Glutamaxtm/Antibiotic-antimycotic (Invitrogen) (Dissecting Medium). Each fetus was decapitated, and the whole brain was transferred to fresh ice cold dissecting medium. After isolation, the hippocampi were collected in a fresh tube of dissecting medium. The tissue was enzymatically digested at 37° C. for 10 minutes with papain (Worthington 3119), 12 mg/6 ml Hibernate-E (-calcium) (BrainBits)+0.5 mM Glutamax (Invitrogen). Hippocampal neurons were obtained by triturating the tissue using a fire-polished Pasteur pipette. After centrifugation, the cells were re-suspended in culture medium (Neurobasal/B27/Glutamaxtm/antibiotic-antimycotic) and plated on MEAs. All research was approved by the Institutional Animal Care and Use Committee at the University of Central Florida and conformed to NIH guidelines.
as §1, §2
Baseline spontaneous activity in adult and embryonic neurons was recorded for 3 minutes on 5 consecutive days per week, starting on 7 div. The synaptic antagonists D-(−)-2-Amino-5-phosphonopentanoic acid (D-APS, 25 μM, Tocris Bioscience, 0106), 6-Cyano-7-nitroquinoxaline-2,3-dione disodium (CNQX, 25 μM, Tocris Bioscience, 1045), and (−)-Bicuculline methobromide (Bicuculline, 50 μM, Tocris Bioscience, 0109) were separately administered to both adult and embryonic neurons on 14 div and at various time points between 30 and 60 div. Three minute recordings were made to quantify the effect from these antagonists on spontaneous activity. If necessary, additional baselines were recorded prior to the administration of antagonists. Each experiment was followed by a complete washout of the antagonist and replacement with fresh medium.
Data analysis was performed off-line using unpublished Matlab functions to evaluate spike files created during each MEA recording. […] In about 25% of the adult cultures and 14% of the embryonic cultures, portions of the neuronal networks detached from the substrate over time and especially after about 6 weeks. In order to accommodate the different numbers of active channels between MEAs, all values were corrected for the amount of active channels on an MEA. […]

Data set [3] relates to adult rat hippocampal neurons. Description: Control of neuronal division in dissociated adult rat hippocampal neuron culture (cell population, neurite length, marker expression). The following applies: for elimination of division of cultured neurons by mitotic inhibitors: added to culture medium on 2 DIV, FudR 10 and 50 μM; for neuronal division after addition to the culture medium: roscovitine added to the culture medium (at 3 div in MEA work). The protocol:
The hippocampi of adult rats (Charles River, age 6-12 months) were dissected and homogenized into small tissue fragments in cold medium (˜4° C.) consisting of Hibernate-A, Glutamax, and antibiotic-antimycotic. The tissue was then digested for 30 minutes at 37° C. in calcium-free Hibernate-A (HA) containing 6 mg papain/12 ml (HA). Following digestion, the tissue was washed three times with cold Hibernate-A media to remove any active enzyme. Next, the tissue was suspended in Dissociation Media (Table 1), formulated for dissociation of rat and mouse adult brain tissue into individual cells and dissociated into individual cells through mechanical dissociation with fire-polished Pasteur pipettes. The dissociated cells were suspended in Plating Media (Table 1), used after tissue dissociation to promote neuronal attachment and regeneration, and then deposited onto DETA-coated glass cover slips for 30-45 minutes. DETA, with its triamine functional group exposed at the surface, strongly attaches to neurons and allows for all non-neuronal debris such as ECM proteins, myelin debris, and cell fragments to be washed from the cover slip surface (D. A. Stenger et al., 1993; J. J. Hickman et al., 1994; M. Das et al., 2005; A. E. Schaffner et al., 1995). Following this washing step, fresh Plating medium was applied and remained for the first 3 DIV. On 3 DIV and every fourth subsequent day, one half of the medium was removed and replaced with Maintenance Media (FIG. 1, Table 1), supporting the long-term maintenance of these neurons. […] The osmolarity of the media was adjusted to match the osmolarity of adult rat cerebrospinal fluid (295-305 mOsm) (S. C. Baraban et al., 1997; R. A. Fishman and G. D. Silverberg, 2002). In the Dissociation Medium (Table 1), the use of caspase inhibitors and antioxidants (M. Das et al., 2007) during the dissociation of the tissue minimized both oxidative damage as well as the progression into apoptosis which normally results from cellular damage during this stage. […] For long-term survival, the anti-oxidants were removed from the Maintenance Medium (Table 1).
After neuronal confluence, 25 μM glutamate ((N-Acetyl-L-glutamic acid, Aldrich, 855642) triggers induction of neuronal electrical recovery (D. Edwards et al., 2010). Control of the division of neurons in this culture system was investigated experimentally as follows: (1) bFGF removal from both the Plating and Maintenance medium. (2) Fluorodeoxyuridine (FudR, Sigma-Aldrich, F-0503) addition at 10 and 50 μM (3) arabinoside-D (ara-C, Sigma, C-6645) plus deoxycytidine addition. (4) Trolox (Sigma, 238813) addition at 40 and 100 μM. (5) Aphidicolin (Aph, Sigma, A0781) addition at 1.5 μM. (6) Roscovitine (Rosc, Sigma, R7772) addition at 1, 5, and 10 μM. All factors were added before the onset of neuronal division (2 DIV), some after the onset of division (after 3 DIV).
To prepare cells for immunocytochemical characterization, cover slips were rinsed twice with Phosphate Buffered Saline (PBS). Cells were fixed with 4% paraformaldehyde for ten minutes at room temperature, and subsequently rinsed three times with PBS. Cells were permeabilized for five min in PBS with 5 mM Lysine and 0.5% Triton X-100, and were then blocked for two hours by adding 5% normal donkey serum. Anti-Neurofilament-M polyclonal antibody (Nf-M, intracellular filament found in mature neurons, Chemicon, AB 1981, diluted 1:1000), anti-NeuN (nuclear marker in mature neurons, Chemicon, diluted 1:1000), anti-Ki-67 (nuclear marker in dividing cells, Chemicon, diluted 1:1000), anti-NR2A (NMDA channel subunit expressed in the post-synaptic cell membrane, AB1548, diluted 1:75), anti-NR2B (NMDA channel subunit expressed in the post-synaptic cell membrane, MAB5216, diluted 1:150) were added in blocking solution for 12 hr at 4° C. After 3 washes with PBS, fluorescently labeled secondary antibodies (Invitrogen, A1011, A21449, and A11029) were applied for two hours. […]

Regarding `N#Cc1cc2c(cc1[N+](=O)[O-])=NC(=O)C(=O)N=2.[Na].[Na]` [CNQX, 6-Cyano-7-nitroquinoxaline-2,3-dione disodium], the “change in action potential frequency” value in data set [1] (25 μM CNQX, 14 div) was “not affected”; in data set [2] (25 μM CNQX, 14 div), “not affected”. In addition, the “loss of channel activity (active channels) versus baseline” value in data set [1] (25 μM antagonist, 14 div) is listed as 52±3%; in data set [1] (25 μM antagonist, 30-60 div), 24±5%; in data set [2] (25 μM antagonist, 14 div), 23±5%; in data set [2] (25 μM antagonist, 30-60 div), 0±7%. Besides, the “lowering (drop) of action potential frequency versus baseline” value in data set [1] (25 μM antagonist, 30-60 div) was determined as 31±6%. For the same compound, in data set [2] (25 μM antagonist, 30-60 div), the “decrease (drop) of firing rate versus baseline” value amounted to 47±5%.
Consider `O=c1[nH]c(=O)n([C@H]2C[C@H](O)[C@@H](CO)O2)cc1F` [FudR, Fluorodeoxyuridine], for which the “elimination of division of cultured neurons by mitotic inhibitors” value in data set [3] is given as “all dividing cells were forced into apoptosis”.
In the case of `Cc1c(C)c2c(c(C)c1O)CCC(C)(C(=O)O)O2` (stereo not drawn) [Trolox], the “prevention of return of primary neurons to the cell cycle” value in data set [3] (Trolox 40 and 100 μM, 2 DIV) is recorded as “not effective”. For the same compound, the “neuronal survival (antioxidant activity)” value in data set [3] (Trolox in culture medium) is recorded as “improve neuronal survival”.
Turning to `C[C@@]1(CO)[C@H](O)CC[C@@]2(C)[C@H]1CC[C@H]1C[C@@H]3C[C@@]12CC[C@]3(O)CO` [aphidicolin, Aphidicolin], in data set [3] (aphidicolin 1.5 μM, 2 DIV), the “regeneration of surviving neurons” value was “limited regeneration of neurites and functional electrical properties”; the “survival of cultured neurons” value was “caused most cultured neurons to either necrose or apoptose”.
With `Nc1ccn([C@@H]2O[C@H](CO)[C@@H](O)[C@@H]2O)c(=O)n1` [ara-C, arabinoside-D], the “elimination of division of cultured neurons by mitotic inhibitors” value in data set [3] is “all dividing cells were forced into apoptosis”.
With `CC[C@H](CO)Nc1nc(NCc2ccccc2)c2ncn(C(C)C)c2n1` [roscovitine], the neuronal cell population entry in data set [3] (1 μM roscovitine applied on day 2, bFGF in medium) was “the cell population increased more slowly than without roscovitine”; in data set [3] (5 μM roscovitine on days 2-7 in vitro and 2 μM after day 7), “A stable population of neurons was achieved”; in data set [3] (5 μM roscovitine on days 2-7 in vitro and 2 μM after day 7, listed as Rosc), “stable in vitro”; in data set [3] (10 μM roscovitine applied on day 2), “caused a decrease in the neuronal population”; in data set [3] (10 μM roscovitine introduced on day 7), “a sharp loss of neurons”. In addition, the “extension of primary axons versus untreated control neurons” value in data set [3] (5 μM roscovitine days 2-7, 2 μM after day 7, on average) is reported as 4-5 times longer. For the same compound, the “neuronal division after addition to the culture medium” value in data set [3] is given as “neurons no longer divided”; in data set [3] (listed as Roscovitine), “prevented neuronal mitotic activity”. Moreover, the “expression of neuronal and proliferation markers (MAP2, NeuN, Ki-67)” value in data set [3] (roscovitine treated, non-proliferating neurons, immunocytochemistry) is “expressed the mature neuronal markers MAP2 and NeuN, but lacked expression for the nuclear marker of proliferating cells, Ki-67”.
Turning to “bFGF: basic fibroblast growth factor (Invitrogen, 13256-029)”, the neuronal cell proliferation entry in data set [3] (bFGF 5 ng/ml in medium) is on record as “triggered neuronal cell proliferation until confluence”.
